Results: ChEMBL document CHEMBL1201862, “PubChem BioAssay data set” (2004)
The source made the active and inactive calls.

Key:
[1] = biological target: T1, Calpain-2 catalytic subunit (Sus scrofa, UniProt P43367); experiment: m-calpain protease blockers, concentration series – biochemical, fluorogenic peptide substrate, dose response (AID 1420); assay type: functional
T1 sequence (P43367 whole entry): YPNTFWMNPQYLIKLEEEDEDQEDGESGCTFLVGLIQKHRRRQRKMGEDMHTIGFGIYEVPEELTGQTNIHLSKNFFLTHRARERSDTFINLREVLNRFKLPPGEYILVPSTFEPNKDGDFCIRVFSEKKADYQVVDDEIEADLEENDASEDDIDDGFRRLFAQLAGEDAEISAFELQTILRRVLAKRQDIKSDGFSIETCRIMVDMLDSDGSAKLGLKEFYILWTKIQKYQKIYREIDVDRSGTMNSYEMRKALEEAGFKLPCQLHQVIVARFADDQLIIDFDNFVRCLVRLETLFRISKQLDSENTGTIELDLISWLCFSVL

[2] = growth inhibition of yeast DHODH-expressing 3D7 parasites – SYBR Green, dry powder samples, dose response (AID 1159570); assay type: functional, cell-based;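 note: parasite growth measured after 72 hours of compound exposure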
[3] = P. falciparum Dd2 growth inhibitors, dose response, SYBR Green, cherry-picked samples (AID 1159567); assay type: functional, cell-based
[4] = Dd2 malaria parasite growth inhibition potency – SYBR Green, dry powder samples, dose response (AID 1159566); assay type: functional, cell-based;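 note: potency for growth inhibition with lower SYBR green DNA signal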
[5] = growth inhibition of PfATP4-mutant resistant parasites – NITD609-resistant line, SYBR Green, dry powder, dose response (AID 1159571); assay type: functional, cell-based;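 note: parasites synchronized at ring stage by sorbitol before testing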
[6] = biological target: T2, Fatty acid synthase (Homo sapiens, UniProt P49327); experiment: inhibition of human FAS-TE enzyme activity – biochemical, endpoint fluorescence intensity, uHTS hits, dose response (AID 624327); assay type: functional;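 note: fluorescence from hydrolysis of an O-methyl fluorescein acyl ester substrate by the enzyme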
T2 sequence (P49327 whole entry): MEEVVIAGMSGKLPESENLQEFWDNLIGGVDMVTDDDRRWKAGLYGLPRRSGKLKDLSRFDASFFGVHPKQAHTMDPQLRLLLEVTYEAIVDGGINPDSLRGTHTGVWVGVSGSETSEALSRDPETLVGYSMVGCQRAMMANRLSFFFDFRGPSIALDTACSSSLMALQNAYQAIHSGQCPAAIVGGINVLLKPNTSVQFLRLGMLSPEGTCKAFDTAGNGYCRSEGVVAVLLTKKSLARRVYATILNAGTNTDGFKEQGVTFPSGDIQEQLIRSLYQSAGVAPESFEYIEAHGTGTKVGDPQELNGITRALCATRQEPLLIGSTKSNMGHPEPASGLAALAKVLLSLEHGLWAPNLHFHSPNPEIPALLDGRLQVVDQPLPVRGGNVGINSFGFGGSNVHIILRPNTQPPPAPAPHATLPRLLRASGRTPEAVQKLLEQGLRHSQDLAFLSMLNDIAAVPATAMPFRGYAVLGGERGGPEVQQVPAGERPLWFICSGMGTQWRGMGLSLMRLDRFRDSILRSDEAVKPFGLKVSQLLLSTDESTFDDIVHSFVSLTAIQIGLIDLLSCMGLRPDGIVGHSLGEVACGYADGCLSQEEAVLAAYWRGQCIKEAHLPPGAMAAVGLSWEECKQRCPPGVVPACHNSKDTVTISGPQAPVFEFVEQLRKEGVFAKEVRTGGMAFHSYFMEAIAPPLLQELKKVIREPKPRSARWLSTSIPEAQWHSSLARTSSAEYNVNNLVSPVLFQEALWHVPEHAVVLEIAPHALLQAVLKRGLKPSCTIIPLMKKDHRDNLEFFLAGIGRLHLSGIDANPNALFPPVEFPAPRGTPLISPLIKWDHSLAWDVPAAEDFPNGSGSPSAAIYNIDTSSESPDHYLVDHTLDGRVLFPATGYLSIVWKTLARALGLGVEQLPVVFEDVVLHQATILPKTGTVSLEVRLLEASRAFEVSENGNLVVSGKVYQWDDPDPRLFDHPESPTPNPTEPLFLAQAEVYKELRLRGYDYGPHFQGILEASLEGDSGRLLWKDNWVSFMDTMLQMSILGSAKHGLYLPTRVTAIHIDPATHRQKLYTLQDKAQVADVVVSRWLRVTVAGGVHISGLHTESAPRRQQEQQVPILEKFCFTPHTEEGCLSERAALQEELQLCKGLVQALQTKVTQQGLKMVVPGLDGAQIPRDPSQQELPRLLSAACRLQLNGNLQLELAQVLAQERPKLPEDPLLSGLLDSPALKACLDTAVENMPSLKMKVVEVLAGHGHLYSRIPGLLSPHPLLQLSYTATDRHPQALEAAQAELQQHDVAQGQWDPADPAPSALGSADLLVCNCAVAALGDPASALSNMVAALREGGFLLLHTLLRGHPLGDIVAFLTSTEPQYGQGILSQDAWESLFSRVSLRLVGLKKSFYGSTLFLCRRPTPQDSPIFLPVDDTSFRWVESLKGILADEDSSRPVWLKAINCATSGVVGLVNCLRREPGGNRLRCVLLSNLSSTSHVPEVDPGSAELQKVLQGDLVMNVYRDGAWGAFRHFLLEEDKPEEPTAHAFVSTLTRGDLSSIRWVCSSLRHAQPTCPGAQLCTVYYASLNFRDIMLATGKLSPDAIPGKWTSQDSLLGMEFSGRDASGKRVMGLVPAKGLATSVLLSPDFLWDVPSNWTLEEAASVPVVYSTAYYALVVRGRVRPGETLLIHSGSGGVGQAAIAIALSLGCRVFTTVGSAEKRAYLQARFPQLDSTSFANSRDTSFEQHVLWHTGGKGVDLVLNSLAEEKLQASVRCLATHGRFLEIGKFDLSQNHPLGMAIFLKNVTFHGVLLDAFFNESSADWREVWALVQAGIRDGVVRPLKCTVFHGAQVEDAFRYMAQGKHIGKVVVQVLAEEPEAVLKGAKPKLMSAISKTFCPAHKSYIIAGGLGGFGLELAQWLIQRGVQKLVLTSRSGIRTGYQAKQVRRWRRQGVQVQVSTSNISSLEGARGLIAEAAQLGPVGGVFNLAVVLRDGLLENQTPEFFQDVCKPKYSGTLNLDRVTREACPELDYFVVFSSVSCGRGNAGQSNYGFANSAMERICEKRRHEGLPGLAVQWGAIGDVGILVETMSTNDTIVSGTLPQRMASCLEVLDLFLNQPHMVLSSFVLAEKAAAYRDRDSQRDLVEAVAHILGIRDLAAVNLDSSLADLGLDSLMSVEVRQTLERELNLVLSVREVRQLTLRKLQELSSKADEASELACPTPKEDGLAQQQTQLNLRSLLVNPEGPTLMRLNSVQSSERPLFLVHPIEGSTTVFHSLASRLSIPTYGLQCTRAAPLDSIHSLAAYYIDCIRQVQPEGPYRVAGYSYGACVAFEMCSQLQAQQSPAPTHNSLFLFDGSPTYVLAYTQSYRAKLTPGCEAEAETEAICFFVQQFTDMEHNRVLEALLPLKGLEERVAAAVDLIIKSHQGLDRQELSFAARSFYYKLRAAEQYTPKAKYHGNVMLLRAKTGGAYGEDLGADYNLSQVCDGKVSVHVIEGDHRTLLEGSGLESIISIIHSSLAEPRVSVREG

[7] = biological target: T2, Fatty acid synthase; experiment: inhibition of human FAS-TE enzyme activity – biochemical, kinetic fluorescence intensity, dose response (AID 624326); assay type: functional;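 note: rate of fluorescence rise from hydrolysis of a fluorogenic O-methyl fluorescein ester substrate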
[8] = biological target: T3, Replicative DNA helicase DnaB (Mycobacterium tuberculosis, UniProt P9WMR3); experiment: DnaB intein splicing inhibitors, dose response, biochemical, cell-free fluorescence (AID 449749); assay type: functional
T3 sequence (P9WMR3 whole entry): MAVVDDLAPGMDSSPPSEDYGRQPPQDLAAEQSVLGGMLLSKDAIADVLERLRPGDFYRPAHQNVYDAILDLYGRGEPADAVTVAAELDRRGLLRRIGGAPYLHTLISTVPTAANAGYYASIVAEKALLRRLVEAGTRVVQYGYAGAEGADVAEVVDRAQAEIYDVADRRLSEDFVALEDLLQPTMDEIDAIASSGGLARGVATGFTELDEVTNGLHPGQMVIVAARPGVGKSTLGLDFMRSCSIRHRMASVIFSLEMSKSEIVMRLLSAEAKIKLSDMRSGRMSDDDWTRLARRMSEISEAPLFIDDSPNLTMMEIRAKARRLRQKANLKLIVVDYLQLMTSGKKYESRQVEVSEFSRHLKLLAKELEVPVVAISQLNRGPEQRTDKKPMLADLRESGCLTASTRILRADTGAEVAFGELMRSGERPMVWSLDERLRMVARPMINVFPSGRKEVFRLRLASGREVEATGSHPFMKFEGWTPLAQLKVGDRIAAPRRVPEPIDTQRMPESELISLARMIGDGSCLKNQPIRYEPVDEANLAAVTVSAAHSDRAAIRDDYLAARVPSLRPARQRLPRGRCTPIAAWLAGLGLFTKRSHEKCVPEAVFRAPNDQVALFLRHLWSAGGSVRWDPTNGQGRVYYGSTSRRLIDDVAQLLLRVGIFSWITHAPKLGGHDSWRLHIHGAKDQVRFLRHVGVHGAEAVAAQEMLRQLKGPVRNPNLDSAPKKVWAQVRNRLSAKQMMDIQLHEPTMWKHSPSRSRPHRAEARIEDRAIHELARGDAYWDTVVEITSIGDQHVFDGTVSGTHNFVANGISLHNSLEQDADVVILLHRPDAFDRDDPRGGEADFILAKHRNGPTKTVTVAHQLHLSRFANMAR

[9] = biological target: T4, Protein RecA (Mycobacterium tuberculosis, UniProt P9WHJ3); experiment: Fluorescence Cell-Free Homogeneous Dose Retest to Identify Inhibitors of RecA-Intein Splicing Activity. [Related pubchem assays (depositor defined):AID2097, AID2223, AID489010, AID492950]; assay type: functional
T4 sequence (P9WHJ3 whole entry): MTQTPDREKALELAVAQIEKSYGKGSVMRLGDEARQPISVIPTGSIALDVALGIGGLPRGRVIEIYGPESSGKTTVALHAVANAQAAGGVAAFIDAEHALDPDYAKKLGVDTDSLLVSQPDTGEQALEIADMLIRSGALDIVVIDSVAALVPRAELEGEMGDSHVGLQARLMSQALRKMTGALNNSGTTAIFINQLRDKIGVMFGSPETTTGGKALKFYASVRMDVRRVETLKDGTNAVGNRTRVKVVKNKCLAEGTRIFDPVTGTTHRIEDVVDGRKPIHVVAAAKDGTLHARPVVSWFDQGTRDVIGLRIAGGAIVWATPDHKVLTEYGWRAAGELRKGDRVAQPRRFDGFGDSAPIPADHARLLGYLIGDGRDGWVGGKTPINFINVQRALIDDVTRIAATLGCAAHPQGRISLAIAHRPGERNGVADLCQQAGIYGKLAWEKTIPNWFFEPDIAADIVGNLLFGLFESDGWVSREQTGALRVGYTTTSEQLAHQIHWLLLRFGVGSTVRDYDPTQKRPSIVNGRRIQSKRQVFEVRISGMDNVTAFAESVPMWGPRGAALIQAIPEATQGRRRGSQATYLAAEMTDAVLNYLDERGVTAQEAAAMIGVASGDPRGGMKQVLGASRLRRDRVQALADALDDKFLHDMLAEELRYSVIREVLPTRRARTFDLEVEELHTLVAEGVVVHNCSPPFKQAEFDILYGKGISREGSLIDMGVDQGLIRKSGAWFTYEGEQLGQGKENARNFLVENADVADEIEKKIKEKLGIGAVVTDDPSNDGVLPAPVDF

[10] = reduction of Shn3 3'UTR-driven luciferase in osteoblasts – cell-based, Clone20 osteoblasts, firefly luciferase, cherry-picked, dose response (AID 624132); assay type: functional;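 note: firefly luciferase luminescence from reporter carrying the Shn3 3'UTR in osteoblasts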
[11] = loss of viability in HepG2 cells – cell-based, CellTiter-Glo, cherry-picked, cytotoxicity control for Shn3 inhibitor project, dose response (AID 624134); assay type: functional
[12] = non-specific 3'UTR reporter inhibition in Clone20-Shn3RL – cell-based, Renilla luciferase, cherry-picked, counter-screen for Shn3 inhibitor project, dose response (AID 624133); assay type: functional
[13] = Trypanosoma cruzi growth suppression in host cells – NIH3T3 host cells, beta-gal luminescence, confirmation (AID 2044); assay type: functional, cell-based;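 note: intracellular parasites grown in NIH/3T3 mouse fibroblasts as host cells; luminescent beta-galactosidase reporter signal from transgenic T. cruzi replicating inside host cells; inhibitors lower the luminescence signal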
[14] = NIH3T3 cell viability loss – ATP luminescence, mouse fibroblasts, counter-screen, dose response (AID 2010); assay type: functional, cell-based;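 note: cells exposed to compound for about 90 hours before reading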
[15] = biological target: T5, DNA repair protein RAD52 homolog (Homo sapiens, UniProt P43351); assay type: functional, biochemical
T5 sequence (P43351 whole entry): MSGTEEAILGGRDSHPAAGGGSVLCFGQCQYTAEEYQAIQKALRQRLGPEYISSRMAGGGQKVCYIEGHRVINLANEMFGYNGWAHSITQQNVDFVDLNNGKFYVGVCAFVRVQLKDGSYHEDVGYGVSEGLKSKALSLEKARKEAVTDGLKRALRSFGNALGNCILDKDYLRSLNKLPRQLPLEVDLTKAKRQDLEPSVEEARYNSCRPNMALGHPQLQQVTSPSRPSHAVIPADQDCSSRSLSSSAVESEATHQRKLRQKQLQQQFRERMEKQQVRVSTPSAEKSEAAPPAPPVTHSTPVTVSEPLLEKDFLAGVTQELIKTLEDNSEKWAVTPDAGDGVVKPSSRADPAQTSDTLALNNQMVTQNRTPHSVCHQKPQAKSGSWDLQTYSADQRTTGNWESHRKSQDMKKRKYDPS

[16] = luciferase reporter signal suppression in cells – H4 neuroglioma cells, luminescence, dose response (AID 1990); assay type: functional, cell-based
[17] = Luminescence Cell-Based Dose Response HTS to Identify Inhibitors of 5'UTR Stem-Loop Driven Prion Protein mRNA Translation in H4 Neuroglioblastoma Cells. [Related pubchem assays: 1827 (Project Summary), 1813 (Primary HTS)]; assay type: functional
[18] = alpha-synuclein stem-loop luciferase translation blockers – H4 neuroglioma cells, luminescence, confirmation (AID 1988); assay type: functional, cell-based
[19] = system: INS1; experiment: INS-1E survival protection against cytokine death – cell-based, luminescence, retest, dose response (AID 449756); assay type: functional; conditions: Rattus norvegicus;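 note: cell death triggered by IL-1 beta plus TNF-alpha plus IFN-gamma mixture; protective hits raise ATP signal compared with cytokine alone wells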
[20] = biological target: FAD-linked sulfhydryl oxidase ALR (Homo sapiens, UniProt P55789); experiment: ALR-catalysed DTT oxidation blockers – biochemical, H2O2 detection, luminescence, cherry-pick, dose response (AID 493248)
Chain of FAD-linked sulfhydryl oxidase ALR (P55789 whole entry): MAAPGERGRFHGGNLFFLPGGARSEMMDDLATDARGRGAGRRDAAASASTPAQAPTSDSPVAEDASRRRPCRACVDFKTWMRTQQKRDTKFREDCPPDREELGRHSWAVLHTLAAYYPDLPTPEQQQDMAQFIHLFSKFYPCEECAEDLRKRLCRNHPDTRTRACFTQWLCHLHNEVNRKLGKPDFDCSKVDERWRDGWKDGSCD

[21] = biological target: Cytochrome P450 2C9 (Homo sapiens, UniProt P11712)
Chain of Cytochrome P450 2C9 (P11712 whole entry): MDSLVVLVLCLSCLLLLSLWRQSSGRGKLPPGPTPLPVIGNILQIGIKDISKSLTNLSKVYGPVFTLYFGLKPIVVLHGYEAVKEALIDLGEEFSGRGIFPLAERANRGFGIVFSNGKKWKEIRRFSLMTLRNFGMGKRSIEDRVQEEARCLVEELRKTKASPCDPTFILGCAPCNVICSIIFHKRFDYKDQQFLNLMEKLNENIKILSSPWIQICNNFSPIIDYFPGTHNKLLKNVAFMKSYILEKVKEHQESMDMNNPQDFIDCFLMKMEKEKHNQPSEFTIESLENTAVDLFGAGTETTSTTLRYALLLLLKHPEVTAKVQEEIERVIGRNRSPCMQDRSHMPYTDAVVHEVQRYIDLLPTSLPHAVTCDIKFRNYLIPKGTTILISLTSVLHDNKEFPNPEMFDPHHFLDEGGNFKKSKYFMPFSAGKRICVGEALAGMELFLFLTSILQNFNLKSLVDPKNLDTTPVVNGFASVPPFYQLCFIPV

For `FC(F)(F)C1CC(c2cccs2)Nc2ncnn21` (centres undefined), the IC50 [1] was 0.904 µM (not active).

With `CC(C)(C)[S@+]([O-])N1Cc2cc(C(=O)N[C@@H]3CCN(Cc4ccccc4)C3)nc(-c3cccc(-c4cccnc4)c3)c2[C@@H]1CCO` the AC50 [2] was 2.62 µM (active), the AC50 [3] was 1.93 µM (active) and the AC50 [4] was 1.99 µM (active). The AC50 [5] was 1.98 µM (active).

For `CCOC(=O)C1(CC2CCCCO2)CCN(C(=O)Nc2ccc(C)c(C)c2)CC1` (centres undefined), the IC50 [1] was > 50 µM (not active).

With `O=S(=O)(Nc1cccc(-n2cnnn2)c1)c1cnc(Cl)c(Cl)c1` the IC50 [6] was 5.37 µM (active) and the IC50 [7] was 8.01 µM (active).

With `CCCCCCOC(=O)c1ccccc1NC(=O)/C=C/C(=O)O` the AC50 [8] was > 380 µM (inactive) and the EC50 [9] was 3.41 µM (active).

In the case of `O=C(NNS(=O)(=O)c1ccc([N+](=O)[O-])cc1)c1cnn(-c2ccccc2)c1-n1cccc1`, the IC50 [6] is reported as 4.5 µM (active) and the IC50 [7] is reported as 4.35 µM (active).

In the case of `Cc1ccc(C(=O)NCCNc2ncc(C(F)(F)F)cc2Cl)cc1[N+](=O)[O-]`, the IC50 [6] is reported as 8.99 µM (active) and the IC50 [7] is reported as 9.8 µM (active).

In the case of `COc1ccc(C#Cc2cnc3c(c2)C(=O)N([C@H](C)CO)C[C@H](C)[C@H](CN(C)S(=O)(=O)c2cccc(F)c2)O3)cc1OC`, the AC50 [2] is reported as 1.8 µM (active), the AC50 [3] is reported as 1.38 µM (active) and the AC50 [4] is reported as 0.774 µM (active). For the same compound, the AC50 [5] was 1.17 µM (active).

With `COc1ccccc1CNc1nc(NCc2ccc(C(C)C)cc2)c2sccc2n1` the AC50 [10] was 6.81 µM (active), the AC50 [11] was 39.4 µM (active) and the AC50 [12] was 10.5 µM (active).

In the case of `CC1=NNC(=O)C1C(c1ccc(Cl)cc1)C(C#N)C#N` (centres undefined), the AC50 [8] is reported as 7.84 µM (active) and the EC50 [9] is reported as 3.26 µM (active).

With `CCCc1n[nH]c2c1C(c1ccccc1OC)C(C#N)=C(N)O2` (centres undefined) the AC50 [8] was 15.9 µM (active) and the EC50 [9] was 2.07 µM (active).

For `O=C(COC(=O)c1cc([N+](=O)[O-])ccc1N1CCOCC1)NCc1ccc(Cl)cc1Cl`, the IC50 [6] was 0.912 µM (active) and the IC50 [7] was 1.05 µM (active).

For `CN1CCN(CCCNC(=O)c2ccc(/C=C3/Sc4ccccc4N(Cc4cccc(Cl)c4)C3=O)cc2)CC1`, the EC50 [13] was 0.11 µM (active), the EC50 [14] was 5.71 µM (active) and the AC50 [15] was 14 µM (active).

For `CC1(C)CC(=O)C=C(c2ccc(COC(=O)c3ccccc3)cc2)C1=O`, the IC50 [6] was 7.19 µM (active) and the IC50 [7] was 3.75 µM (active).

In the case of `CC1CCc2c(sc3c2C2=NS(=O)(=O)CCN2C=N3)C1` (centres undefined), the IC50 [1] is reported as 9.53 µM (not active).

For `COc1ccc(CNCCc2c(C)[nH]c3ccc(OC(F)(F)F)cc23)c(OC)c1`, the EC50 [16] was 17.7 µM (active), the EC50 [17] was > 120 µM (not active) and the EC50 [18] was > 120 µM (not active). For the same compound, the EC50 [13] was 0.703 µM (active), the EC50 [14] was > 60 µM (not active) and the AC50 [19] was 4.68 µM (active). The AC50 [10] was 0.963 µM (active), the AC50 [11] was 9.13 µM (active) and the AC50 [12] was 8.45 µM (active).

With `CC(C)(C)C(=O)Nc1nc(C2CCCN2S(=O)(=O)c2ccc(Cl)cc2)cs1` (centres undefined) the IC50 [6] was 9.08 µM (active) and the IC50 [7] was 8.77 µM (active).

With `Cc1ccc(Sc2c([N+](=O)[O-])ncn2C)cc1` the AC50 [20] was 0.27 µM (active), the AC50 [8] was 112 µM (active) and the EC50 [9] was 34.6 µM (active). For the same compound, the AC50 [21] was 1.58 µM (inconclusive).

With `CN1CCN(CC(O)COc2ccc(C34CC5CC(CC(C5)C3)C4)cc2)CC1` (centres undefined) the AC50 [15] was 10.5 µM (active).
